Results from article PMC9403987 (Frontiers in Oncology, 2022).

What was measured:
NCI-H1975 = test: Subcutaneous NCI-H1975 non-small cell lung cancer xenograft; type: in vivo, BALB/c nude mice; settings: 22 days, measured day 16
Protocol: (§1) The efficacy of GLR2007 was evaluated in human GBM and breast cancer orthotopic cell-line-derived xenografts in NOD/SCID mice (Shanghai Lingchang Biotechnology Co. Ltd, Shanghai, China) and BALB/c nude mice (Shanghai Sino-British SIPPR/BK Laboratory Animal Co. Ltd, Shanghai, China), and human lung, colorectal, and liver cancer subcutaneous cell-line-derived xenografts in BALB/c nude mice (Nanjing University National Resource Center, Nanjing, China, or Beijing Anikeeper Biotech Co., Beijing, China). Mice were maintained in humidity- and temperature-controlled conditions with food and water available ad libitum. For subcutaneous models, female BALB/c nude mice were inoculated at 4–8 weeks old with 3×10^6–1×10^7 tumor cells (see Table 1 for xenograft model cell types) in the right flank for tumor development. Randomization was performed when the mean tumor volume reached 118–171 mm^3.

MHCC97L = test: Cell proliferation assay; type: cell-based; settings: Homo sapiens, liver, hepatocellular carcinoma, 72 hours
LI1088 = test: Subcutaneous LI1088 liver cancer xenograft; type: in vivo, BALB/c nude mice; settings: 25 mg/kg daily oral, 28 days, measured day 25
Protocol: as §1

MCF-7 tumor cells = test: Orthotopic MCF-7 breast cancer xenograft; type: in vivo, NOD/SCID mice
Protocol: as §1, with “libitum.” for “libitum. For subcutaneous models, female BALB/c nude mice were inoculated at 4–8 weeks old with 3×10^6–1×10^7 tumor cells (see Table 1 for xenograft model cell types) in the right flank for tumor development. Randomization was performed when the mean tumor volume reached 118–171 mm^3.”
In two breast cancer orthotopic xenograft models, female NOD/SCID mice were subcutaneously implanted with an estrogen pellet (17β-estradiol; Innovative Research of America, Sarasota, FL, USA) one day before tumor inoculation. Mice were inoculated at 6–7 weeks old with 2×10^7 MCF-7 tumor cells plus Matrigel in a 1:1 ratio in PBS at a mammary fat pad or in the right flank. Randomization was performed when the mean tumor volume reached 135–138 mm^3.

U87-MG [1] = test system: U87-MG; parameters: method as in PMID 26149830; settings: orthotopic U87-MG GBM rat xenografts; cited from earlier work
[2] = mouse, in vivo, po, 30 mg/kg; cited from earlier work
MOG-G-UVW = test: Cell proliferation assay; type: cell-based, Homo sapiens; settings: brain, grade III astrocytoma, 72 hours
Summary of the method: (§2)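 Read-out is either the number of live-cell nuclei per well, counted by imaging after DAPI staining, or CellTiter-Glo luminescence reflecting metabolically active cells. Cells are seeded at 4000 per well and allowed to settle overnight at 37°C in 5% CO2 before compound treatment.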

SK-N-BE(2) = test: Cell proliferation assay; type: cell-based, Homo sapiens; settings: neuroblastoma, 72 hours
Summary of the method: as §2

SK-HEP-1 = test: Cell proliferation assay; type: cell-based, Homo sapiens; settings: SK-HEP-1, liver, hepatocellular carcinoma, 72 hours
Summary of the method: as §2

CT26.WT = test: Cell proliferation assay; type: cell-based, Mus musculus; settings: colorectal carcinoma, 72 hours
Protocol: (§3) To quantify cell proliferation, either the nuclei of live cells were counted following staining with 4’,6-diamidino-2-phenylindole (DAPI; Sigma-Aldrich, Burlington, MA, USA), or metabolically active cells were detected using a CellTiter-Glo assay (Promega Corporation, Madison, WI, USA). Cells from a range of human and mammalian tumor cell lines (American Type Culture Collection, Manassas, VA, USA) were seeded at 4000 cells per well in 100 μL of culture medium in a 96-well plate and incubated overnight at 37°C with 5% CO2. […] In the DAPI staining method, cells were washed using 1× phosphate-buffered saline (PBS; Gibco Thermo Fisher Scientific, Waltham, MA, USA), fixed with 4% formaldehyde, permeabilized with 0.2% Triton X-100 (Sigma-Aldrich), washed again, and stained with 1 μg/mL DAPI to visualize cell nuclei. Cells were washed with 1× PBS three times, and 100 μL 1× PBS was added to each well. Plates were scanned using an IN Cell Analyzer 2200 (GE Healthcare Life Sciences, Chicago, IL, USA) and the number of cells per well was recorded. In the CellTiter-Glo assay, 60 μL of CellTiter-Glo luminescent solution was added to each well after incubation with the test compounds, and the assay plate was scanned using a Tecan Infinite M1000 PRO microplate reader (Tecan Group AG, Männedorf, Switzerland) to record luminescent signals.

CDK4–cyclin D1 = molecular target: T1, CDK4–cyclin D1 (Homo sapiens, UniProt P11802); test: LANCE Ultra TR-FRET enzymatic profiling assay; type: biochemical
T1 construct: purchased Invitrogen
T1 sequence (P11802 whole entry): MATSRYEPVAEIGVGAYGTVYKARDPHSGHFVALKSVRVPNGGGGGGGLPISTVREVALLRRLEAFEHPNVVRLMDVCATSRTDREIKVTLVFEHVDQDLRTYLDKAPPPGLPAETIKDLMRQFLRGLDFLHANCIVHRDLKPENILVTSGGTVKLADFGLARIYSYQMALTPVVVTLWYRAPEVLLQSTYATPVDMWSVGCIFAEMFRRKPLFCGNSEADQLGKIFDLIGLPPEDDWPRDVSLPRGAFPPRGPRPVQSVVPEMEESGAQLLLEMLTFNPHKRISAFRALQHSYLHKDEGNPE
T1 sequence (P24385 whole entry partner): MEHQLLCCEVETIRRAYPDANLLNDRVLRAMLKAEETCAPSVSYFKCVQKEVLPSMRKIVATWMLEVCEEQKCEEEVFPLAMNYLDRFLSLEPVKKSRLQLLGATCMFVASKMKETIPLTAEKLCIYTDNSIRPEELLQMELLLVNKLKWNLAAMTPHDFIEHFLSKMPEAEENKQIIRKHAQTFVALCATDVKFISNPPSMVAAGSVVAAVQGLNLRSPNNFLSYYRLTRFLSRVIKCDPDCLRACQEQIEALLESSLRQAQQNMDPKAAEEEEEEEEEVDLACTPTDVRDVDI
Protocol: Results were calculated as half-maximal inhibitory concentration (IC50) and inhibition constant (K i). IC50 and K i values were determined using the XLfit 205 model (ID Business Solutions Ltd, Guildford, UK) curve-fitting add-on for Microsoft Excel (Microsoft Corporation, Redmond, WA, USA).

NCI-H2228 = test: Subcutaneous NCI-H2228 non-small cell lung cancer xenograft; type: in vivo, BALB/c nude mice; settings: 50 mg/kg daily oral, 28 days, measured day 34
Protocol: as §1

BRL = test: Cell proliferation assay; type: cell-based, Rattus norvegicus; settings: liver, normal, 72 hours
Protocol: as §3

U87-MG [3] = settings: cell line U87-MG; cited from earlier work
PLC/PRF/5 = test: Cell proliferation assay; type: cell-based, Homo sapiens; settings: PLC/PRF/5, liver, hepatocellular carcinoma, 72 hours
Summary of the method: as §2

Colo320DM = test: Cell proliferation assay; type: cell-based, Homo sapiens; settings: colon carcinoma, 72 hours
Summary of the method: as §2

CDK6–cyclin D1 = molecular target: T2, CDK6–cyclin D1 (Homo sapiens, UniProt Q00534); test: LANCE Ultra TR-FRET enzymatic profiling assay; type: biochemical
T2 construct: purchased Invitrogen
T2 sequence (Q00534 whole entry): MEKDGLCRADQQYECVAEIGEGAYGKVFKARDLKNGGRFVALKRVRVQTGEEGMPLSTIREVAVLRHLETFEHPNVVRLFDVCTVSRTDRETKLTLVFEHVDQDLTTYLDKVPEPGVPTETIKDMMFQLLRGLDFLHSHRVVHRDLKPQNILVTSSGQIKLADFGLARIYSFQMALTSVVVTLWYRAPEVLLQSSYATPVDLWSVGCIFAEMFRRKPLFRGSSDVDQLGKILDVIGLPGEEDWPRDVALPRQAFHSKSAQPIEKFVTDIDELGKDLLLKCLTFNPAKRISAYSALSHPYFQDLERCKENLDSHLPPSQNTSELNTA
T2 sequence (P24385 whole entry partner): as the sequence (P24385 whole entry partner) above
Protocol: Results were calculated as half-maximal inhibitory concentration (IC50) and inhibition constant (K i).

[4] = 25 mg/kg daily oral, 21 days, measured day 21, 8 mice
[5] = 25 mg/kg daily oral, 28 days, measured day 25, 10 mice

With `CCN1CCN(Cc2ccc(Nc3ncc(F)c(-c4cc(F)c5nc(C)n(C(C)C)c5c4)n3)nc2)CC1` [Abemaciclib, abemaciclib, reference compound] the “TGI (%)” value (NCI-H1975; 25 mg/kg daily oral) was 6.9%, the IC50 (MHCC97L) was 236 nM and the “TGI (%)” value (LI1088) was 22.4%. For the same compound, the “TGI (%)” value (MCF-7 tumor cells; [4]) was 33.0%, the “TGI (%)” value (MCF-7 tumor cells; [5]) was 48.6% and the “Increase in survival time compared to vehicle control” value (U87-MG [1]) was 37.4%. The “Kp,uu” value [2] was 0.03, the IC50 (MOG-G-UVW; Homo sapiens) was 72 nM and the IC50 (SK-N-BE(2); Homo sapiens, SKNBE2, brain) was 133 nM. For the same compound, the IC50 (SK-HEP-1; Homo sapiens, SK-HEP1) was 6 nM.

With `CC1=Nc2c(F)cc(-c3nc(Nc4ccc(C5CCN(C)CC5)cn4)ncc3F)cc2C12CCCC2` [GLR2007] the “TGI (%)” value (NCI-H1975; 10 mg/kg daily oral) was 27.6%, the “TGI (%)” value (NCI-H1975; 25 mg/kg daily oral) was 50.0% and the IC50 (CT26.WT) was 2020 nM. For the same compound, the “TGI (%)” value (LI1088) was 57.7%, the Ki (CDK4–cyclin D1; CDK4/CyD1) was under 0.1 nM and the IC50 (CDK4–cyclin D1; CDK4/CyD1, 11 concentrations in duplicates) was 0.22 nM. The “TGI (%)” value (NCI-H2228) was 33.9%, the “TGI (%)” value (MCF-7 tumor cells; 10 mg/kg daily oral, 21 days, measured day 21, 8 mice) was 43.5% and the “TGI (%)” value (MCF-7 tumor cells; [4]) was 37.4%. The “TGI (%)” value (MCF-7 tumor cells; [5]) was 61.4%, the “TGI (%)” value (MCF-7 tumor cells; 50 mg/kg daily oral, 21 days, measured day 21, 8 mice) was 49.6% and the IC50 (BRL) was 2120 nM. The Cell cycle effect (U87-MG [3]) was “induce G1 arrest”, the IC50 (PLC/PRF/5) was 302 nM and the IC50 (MOG-G-UVW) was 43 nM. The IC50 (SK-N-BE(2); brain) was 130 nM, the IC50 (SK-HEP-1) was 36 nM and the IC50 (Colo320DM) was 1140 nM. The Ki (CDK6–cyclin D1; CDK6/CyD1) was under 0.08 nM and the IC50 (CDK6–cyclin D1; CDK6/CyD1, 11 concentrations in duplicates) was 0.53 nM.
